According to PubChem BioAssay AID2060492 (Molecular Pharmacology Branch, DTP, NCI, 2025):

System: 695427-040-R-J1-PDC complex spheroids, viability percent T/C
Experiment: Anticancer human tumor 695427-040-R-J1-PDC patient-derived colon adenocarcinoma cell line growth inhibition [GQUAD]
Conditions: for IC50: curve of first compound; for viability, T/C: stronger effect = lower value
In short: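 Multi-cell-type spheroids of tumor cells with HUVEC and mesenchymal stem cells, treated with drug combinations. Concentrations descend in half-log steps from near clinical Cmax, or from 10 microM where Cmax is unknown; viability read-out.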
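Also: spheroids exposed to compounds for seven days before readout.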

COc1cccc2c1C(=O)c1c(O)c3c(c(O)c1C2=O)CC(O)(C(=O)CO)CC3OC1CC(N)C(O)C(C)O1 (configuration not stated) + CN(C)c1ccc(Nc2c3ccc(NC(=O)CCN4CCCC4)cc3nc3cc(NC(=O)CCN4CCCC4)ccc23)cc1
IC50 (second compound 0.0316 µM): 9.64 µM | IC50 (second compound 0.1 µM): > 10 µM | IC50 (second compound 0.316 µM): > 10 µM | IC50 (second compound 1 µM): 9.98 µM | IC50 (second compound 3.16 µM): 8.08 µM | IC50 (second compound 10 µM): > 10 µM | viability, T/C (second compound 0.0316 µM, first compound 0.0316 µM): 97% | viability, T/C (second compound 0.0316 µM, first compound 0.1 µM): 86.8% | viability, T/C (second compound 0.0316 µM, first compound 0.316 µM): 90.3% | viability, T/C (second compound 0.0316 µM, first compound 1 µM): 82.3% | viability, T/C (second compound 0.0316 µM, first compound 3.16 µM): 63.1% | viability, T/C (second compound 0.0316 µM, first compound 10 µM): 49.7% | viability, T/C (second compound 0.1 µM, first compound 0.0316 µM): 102% | viability, T/C (second compound 0.1 µM, first compound 0.1 µM): 92% | viability, T/C (second compound 0.1 µM, first compound 0.316 µM): 85.9% | viability, T/C (second compound 0.1 µM, first compound 1 µM): 81.3% | viability, T/C (second compound 0.1 µM, first compound 3.16 µM): 66.6% | viability, T/C (second compound 0.1 µM, first compound 10 µM): 53.2% | viability, T/C (second compound 0.316 µM, first compound 0.0316 µM): 93.2% | viability, T/C (second compound 0.316 µM, first compound 0.1 µM): 89.4% | viability, T/C (second compound 0.316 µM, first compound 0.316 µM): 90.2% | viability, T/C (second compound 0.316 µM, first compound 1 µM): 80.5% | viability, T/C (second compound 0.316 µM, first compound 3.16 µM): 63.8% | viability, T/C (second compound 0.316 µM, first compound 10 µM): 50.1% | viability, T/C (second compound 1 µM, first compound 0.0316 µM): 90.6% | viability, T/C (second compound 1 µM, first compound 0.1 µM): 87.2% | viability, T/C (second compound 1 µM, first compound 0.316 µM): 81.5% | viability, T/C (second compound 1 µM, first compound 1 µM): 78.3% | viability, T/C (second compound 1 µM, first compound 3.16 µM): 69.3% | viability, T/C (second compound 1 µM, first compound 10 µM): 49.4% | viability, T/C (second compound 3.16 µM, first compound 0.0316 µM): 97.1% | viability, T/C (second compound 3.16 µM, first compound 0.1 µM): 87.2% | viability, T/C (second compound 3.16 µM, first compound 0.316 µM): 87.6% | viability, T/C (second compound 3.16 µM, first compound 1 µM): 77.9% | viability, T/C (second compound 3.16 µM, first compound 3.16 µM): 65.5% | viability, T/C (second compound 3.16 µM, first compound 10 µM): 46% | viability, T/C (second compound 10 µM, first compound 0.0316 µM): 89.2% | viability, T/C (second compound 10 µM, first compound 0.1 µM): 84.6% | viability, T/C (second compound 10 µM, first compound 0.316 µM): 81.8% | viability, T/C (second compound 10 µM, first compound 1 µM): 76.1% | viability, T/C (second compound 10 µM, first compound 3.16 µM): 68.2% | viability, T/C (second compound 10 µM, first compound 10 µM): 52.3%
